In US10004701B2, “Methods and compositions for treating infection” (UNIVERSITY OF ROCHESTER, priority 2012, dated 2018) one finds fold induction data, which are given here for ten compounds.

Experiment in all cases: AK assay 384-well format, Prestwick library screening
The subject of one assay is K. pneumoniae. The assay is classed as cell-based, Klebsiella pneumoniae. The settings on record: Klebsiella pneumoniae, 3 h, 50 μM final drug concentration.
The subject of a further assay is E. cloacae. The assay is classed as cell-based, Enterobacter cloacae. To be noted: Enterobacter cloacae, 3 h, 50 μM final drug concentration.
The subject of a further assay is E. faecium. The assay is classed as cell-based, Enterococcus faecium. The settings on record: Enterococcus faecium, 3 h, 50 μM final drug concentration.
The subject of assay [1] is A. baumannii strain 98-37-09. The assay is classed as cell-based, Acinetobacter baumannii. To be noted: Acinetobacter baumannii, 983709, 3 h, 50 μM final drug concentration.
A further assay concerns E. coli. It counts as cell-based, Escherichia coli. The settings on record: Escherichia coli, 3 h, 50 μM final drug concentration.
In assay [2] the test system is S. aureus strain USA300-0114. The assay is classed as cell-based, Staphylococcus aureus. The settings on record: Staphylococcus aureus, USA300, 3 h, 50 μM final drug concentration.
For the next assay, the system named is P. aeruginosa. The assay is classed as cell-based, Pseudomonas aeruginosa. To be noted: Pseudomonas aeruginosa, 3 h, 50 μM final drug concentration.
The mark [3] stands for this setting: cutoff for positive-scoring molecules 3-fold increase, read-out: AK-based Prestwick Library Screening Results, K. pneumoniae (fold increase in extracellular AK activity).
Where [4] appears, read: cutoff for positive-scoring molecules 3-fold increase, read-out: AK-based Prestwick Library Screening Results, E. cloacae (fold increase in extracellular AK activity).
Where [5] appears, read: cutoff for positive-scoring molecules 3-fold increase, read-out: AK-based Prestwick Library Screening Results, E. faecium (fold increase in extracellular AK activity).
Setting [6] is: cutoff for positive-scoring molecules 3-fold increase, read-out: AK-based Prestwick Library Screening Results, A. baumannii (fold increase in extracellular AK activity).
Where [7] appears, read: cutoff for positive-scoring molecules 3-fold increase, read-out: AK-based Prestwick Library Screening Results, E. coli (fold increase in extracellular AK activity).
[8] abbreviates: cutoff for positive-scoring molecules 3-fold increase, read-out: AK-based Prestwick Library Screening Results, S. aureus (fold increase in extracellular AK activity).
The mark [9] stands for this setting: cutoff for positive-scoring molecules 3-fold increase, read-out: AK-based Prestwick Library Screening Results, P. aeruginosa (fold increase in extracellular AK activity).
Setting [10] is: planktonic K. pneumoniae, positive cutoff 3-fold increase, read-out: AK-based Prestwick library screening result, K. pneumoniae (fold increase in extracellular AK activity).
Setting [11] is: planktonic E. cloacae, positive cutoff 3-fold increase, read-out: AK-based Prestwick library screening result, E. cloacae (fold increase in extracellular AK activity).
Where [12] appears, read: planktonic E. faecium, positive cutoff 3-fold increase, read-out: AK-based Prestwick library screening result, E. faecium (fold increase in extracellular AK activity).
Setting [13] is: planktonic A. baumannii, positive cutoff 3-fold increase, read-out: AK-based Prestwick library screening result, A. baumannii (fold increase in extracellular AK activity).
Where [14] appears, read: planktonic E. coli, positive cutoff 3-fold increase, read-out: AK-based Prestwick library screening result, E. coli (fold increase in extracellular AK activity).
The mark [15] stands for this setting: planktonic S. aureus, positive cutoff 3-fold increase, read-out: AK-based Prestwick library screening result, S. aureus (fold increase in extracellular AK activity).
[16] abbreviates: planktonic P. aeruginosa, positive cutoff 3-fold increase, read-out: AK-based Prestwick library screening result, P. aeruginosa (fold increase in extracellular AK activity).

Where a name gives a salt, the structure may show the parent alone. Read-outs that look alike come from different tables or passages of the source.

On to `CCC1NC(=O)c2cc(S(N)(=O)=O)c(Cl)cc2N1` (stereo not shown) [Quinethazone], for which the fold induction at 50 µM in the assay on K. pneumoniae (setting [3]) amounted to 0.6; in the assay with E. cloacae (setting [4]) it was 0.4; in the assay with E. faecium (setting [5]) it was 0.9; in assay [1] (setting [6]), 0.5; with E. coli (setting [7]) it was 0.6; in assay [2] (setting [8]) it was 0.4. The fold induction at 50 µM with P. aeruginosa (setting [9]) was 0.5.

As to `O=C(O)[C@]1(O)C[C@@H](O)[C@@H](O)[C@H](O)C1` [Quinic acid], the fold induction at 50 µM in the assay on K. pneumoniae (setting [10]) was 1.3; in the assay on E. cloacae (setting [11]), 1.2; in the assay on E. faecium (setting [12]), 1; in assay [1] (setting [13]) it was 1.4; in the assay on E. coli (setting [14]), 1.2; in assay [2] (setting [15]) it was 1.2. Besides, in the assay on P. aeruginosa (setting [16]), the fold induction at 50 µM came out at 1.1.

For `CC(=O)SCC(Cc1ccccc1)C(=O)NCC(=O)OCc1ccccc1` (stereo not shown) [Racecadotril], the fold induction at 50 µM was found to be 1.1 in the assay on K. pneumoniae (planktonic, cutoff for positive 3-fold increase, read-out: AK-based Prestwick Library Screening Results, K. pneumoniae (fold increase in extracellular AK activity)); 1.5 in the assay with E. cloacae (planktonic, cutoff for positive 3-fold increase, read-out: AK-based Prestwick Library Screening Results, E. cloacae (fold increase in extracellular AK activity)); 1 in the assay with E. faecium (planktonic, cutoff for positive 3-fold increase, read-out: AK-based Prestwick Library Screening Results, E. faecium (fold increase in extracellular AK activity)); 1.3 in assay [1] (planktonic, cutoff for positive 3-fold increase, read-out: AK-based Prestwick Library Screening Results, A. baumannii (fold increase in extracellular AK activity)); 1.2 with E. coli (planktonic, cutoff for positive 3-fold increase, read-out: AK-based Prestwick Library Screening Results, E. coli (fold increase in extracellular AK activity)); 1.9 in assay [2] (planktonic, cutoff for positive 3-fold increase, read-out: AK-based Prestwick Library Screening Results, S. aureus (fold increase in extracellular AK activity)). In addition, in the assay on P. aeruginosa (planktonic, cutoff for positive 3-fold increase, read-out: AK-based Prestwick Library Screening Results, P. aeruginosa (fold increase in extracellular AK activity)), the fold induction at 50 µM came out at 1.2.

Regarding `O=C(c1ccc(OCCN2CCCCC2)cc1)c1c(-c2ccc(O)cc2)sc2cc(O)ccc12` [Raloxifene hydrochloride], the fold induction at 50 µM came out at 1.1 in the assay with K. pneumoniae (setting [3]); 1.3 with E. cloacae (setting [4]); 0.9 with E. faecium (setting [5]); 1.5 in assay [1] (setting [6]); 1.5 in the assay on E. coli ([…], read-out: AK-based Prestwick Library Screening Results, E. coli (fold increase in extracellular AK activity)); 1.2 in assay [2] (setting [8]). Moreover, the fold induction at 50 µM in the assay with P. aeruginosa (setting [9]) was 1.2.

On to `CCOC(=O)[C@H](CCc1ccccc1)N[C@@H](C)C(=O)N1[C@H](C(=O)O)C[C@@H]2CCC[C@@H]21` [Ramipril], for which the fold induction at 50 µM with K. pneumoniae (setting [10]) was determined as 1; in the assay on E. cloacae (setting [11]), 1.1; in the assay on E. faecium (setting [12]), 1; in assay [1] (setting [13]), 1.3; in the assay with E. coli (setting [14]), 1.1; in assay [2] (setting [15]), 1.2. Besides, in the assay with P. aeruginosa (setting [16]), the fold induction at 50 µM was 1.2.

With `CNC(=C[N+](=O)[O-])NCCSCc1ccc(CN(C)C)o1` [Ranitidine hydrochloride], the fold induction at 50 µM was determined as 0.9 in the assay on K. pneumoniae (planktonic K. pneumoniae, 384-well, cutoff for positive-scoring molecules 3-fold increase, read-out: AK-based Prestwick Library Screening Results: K. pneumoniae (increase in extracellular AK activity)); 1.5 in the assay with E. cloacae (planktonic E. cloacae, 384-well, cutoff for positive-scoring molecules 3-fold increase, read-out: AK-based Prestwick Library Screening Results: E. cloacae (increase in extracellular AK activity)); 1.1 in the assay on E. faecium (planktonic E. faecium, 384-well, cutoff for positive-scoring molecules 3-fold increase, read-out: AK-based Prestwick Library Screening Results: E. faecium (increase in extracellular AK activity)); 1.1 in assay [1] (planktonic A. baumannii, 384-well, cutoff for positive-scoring molecules 3-fold increase, read-out: AK-based Prestwick Library Screening Results: A. baumannii (increase in extracellular AK activity)); 1.4 in the assay with E. coli (planktonic E. coli, 384-well, cutoff for positive-scoring molecules 3-fold increase, read-out: AK-based Prestwick Library Screening Results: E. coli (increase in extracellular AK activity)); 1.2 in assay [2] (planktonic S. aureus, 384-well, cutoff for positive-scoring molecules 3-fold increase, read-out: AK-based Prestwick Library Screening Results: S. aureus (increase in extracellular AK activity)). The fold induction at 50 µM in the assay on P. aeruginosa (planktonic P. aeruginosa, 384-well, cutoff for positive-scoring molecules 3-fold increase, read-out: AK-based Prestwick Library Screening Results: P. aeruginosa (increase in extracellular AK activity)) turned out to be 1.3.

Consider `COc1ccccc1OCC(O)CN1CCN(CC(=O)Nc2c(C)cccc2C)CC1` (stereo not shown) [Ranolazine], for which the fold induction at 50 µM stood at 0.9 in the assay on K. pneumoniae (setting [10]); 1.4 in the assay on E. cloacae (setting [11]); 0.9 with E. faecium (setting [12]); 1.2 in assay [1] (setting [13]); 1.2 with E. coli (setting [14]); 1 in assay [2] (setting [15]). For the same compound, the fold induction at 50 µM with P. aeruginosa (setting [16]) stood at 1.

As for `COC(=O)[C@H]1[C@H]2C[C@H]3c4[nH]c5ccccc5c4CCN3C[C@H]2CC[C@@H]1O` [Rauwolscine hydrochloride], the fold induction at 50 µM with K. pneumoniae (planktonic K. pneumoniae, cutoff for positive-scoring molecules 3-fold increase, read-out: AK-based Prestwick Library Screening Results, K. pneumoniae (increase in extracellular AK activity)) came out at 0.6; in the assay on E. cloacae (planktonic E. cloacae, cutoff for positive-scoring molecules 3-fold increase, read-out: AK-based Prestwick Library Screening Results, E. cloacae (increase in extracellular AK activity)), 0.8; in the assay with E. faecium (planktonic E. faecium, cutoff for positive-scoring molecules 3-fold increase, read-out: AK-based Prestwick Library Screening Results, E. faecium (increase in extracellular AK activity)) it was 1; in assay [1] (planktonic A. baumannii, cutoff for positive-scoring molecules 3-fold increase, read-out: AK-based Prestwick Library Screening Results, A. baumannii (increase in extracellular AK activity)) it was 0.8; in the assay with E. coli (planktonic E. coli, cutoff for positive-scoring molecules 3-fold increase, read-out: AK-based Prestwick Library Screening Results, E. coli (increase in extracellular AK activity)), 0.7; in assay [2] (planktonic S. aureus, cutoff for positive-scoring molecules 3-fold increase, read-out: AK-based Prestwick Library Screening Results, S. aureus (increase in extracellular AK activity)), 0.7. For the same compound, the fold induction at 50 µM in the assay on P. aeruginosa (planktonic P. aeruginosa, cutoff for positive-scoring molecules 3-fold increase, read-out: AK-based Prestwick Library Screening Results, P. aeruginosa (increase in extracellular AK activity)) worked out at 0.6.

For `CCN1CCC[C@H]1CNC(=O)c1c(OC)ccc(Br)c1OC` [Remoxipride Hydrochloride], the fold induction at 50 µM came out at 0.6 in the assay with K. pneumoniae (setting [3]); 0.8 in the assay on E. cloacae (setting [4]); 0.9 with E. faecium (setting [5]); 0.7 in assay [1] (setting [6]); 0.7 in the assay on E. coli (setting [7]); 0.6 in assay [2] (setting [8]). Besides, in the assay on P. aeruginosa (setting [9]), the fold induction at 50 µM was 0.7.

Consider `CCOc1cc(CC(=O)N[C@@H](CC(C)C)c2ccccc2N2CCCCC2)ccc1C(=O)O` [Repaglinide], for which the fold induction at 50 µM came out at 0.4 in the assay with K. pneumoniae (setting [3]); 0.4 with E. cloacae (setting [4]); 0.9 in the assay with E. faecium (setting [5]); 0.4 in assay [1] (setting [6]); 0.4 in the assay with E. coli (setting [7]); 0.3 in assay [2] (setting [8]). Moreover, in the assay on P. aeruginosa (setting [9]), the fold induction at 50 µM came to 0.4.
